# Columns and labels:
# [1] = system: MCP-1, IL-6 and IL-1a; experiment: Quantification of cytokines in plasma after photothrombotic focal ischemia; assay type: in vivo, mice; conditions: 4 hrs after focal ischemia
# Protocol: Detection of MCP-1 (monocyte chemotactant protein-1), IL-6 (interleukin-6) and IL-1a (interleukin-1a) was performed using a LEGENDplex assay kit according to the manufacturers' instructions (BioPlex, BioLegend, San Diego, CA, USA).
# To evaluate the inflammatory response at early time points, blood samples were collected 4 hrs after induction of a focal ischemic event.
# [2] = system: GFAP, CD14 and MMP9 mRNA; experiment: qPCR of molecular markers in peri-infarct tissue after photothrombotic focal ischemia; assay type: in vivo, mice; conditions: 3 days post-stroke
# Protocol: Tissue from the peri-infarct area was collected and snap-frozen 12-72 hrs post stroke and RNA was extracted using a RNA mini kit (Qiagen) following the instructions from the manufacturer. Extracted RNA was treated with DNAse using Turbo DNA-free kit (Ambion), all according to the manufacturer's protocol. The reverse transcription was performed using gScript™ cDNA SuperMix (Quanta Biosciences, Gaithersburg, MD, USA) on a standard PCR machine (25° C. for 5 min, 42° C. for 30 min, 85° C. for 5 min) and cDNA stored at −20° C. until further processing.
# qPCR was performed in 96-well plates (Agilent Technologies, Santa Clara, CA, USA) mixing PerfeCTa SYBR Green FastMix (Quanta Biosciences), nuclease free water (Qiagen, West Sussex, UK), and primers (TAG Copenhagen A/S (Copenhagen, Denmark). The PCR was performed with an initial denaturation step of 95° C. for 30 s, followed by 40 cycles of 5 s at 95° C., 60° C. for 15 s and 72° C. for 10 s. To assure single-product amplification, a dissociation curve analysis was performed consisting of 60 s at 95° C., 30 s at 55° C. and 30 s at 95° C. The qPCR was performed using the Agilent Mx3005P qPCR system (Agilent Technologies), and the corresponding MxPro software was used to determine the Ct values. The ΔCt values were calculated using 2 (Reference Ct−Target Ct).
# To investigate the protective mechanisms against brain damage following a focal ischemic insult, mRNA expression levels of the markers GFAP, CD14 and MMP9 were measured in the brain tissue surrounding the ischemic core 3 days post-stroke.
# [3] = system: wild-type and GABAB receptor knock-out mice; experiment: Temperature recording (hypothermia) in mice; assay type: in vivo; conditions: 500 mg/kg i.p.; wild-type or GABAB knock-out mice
# Protocol: Mice were pre-treated with saline injections (0.9% saline) i.p. for 4 days prior to the experiment to minimize stress on the day of the experiment. Experiments were conducted in a quiet room, in which mice were left undisturbed for at least two hrs prior to the experiment. After the i.p. injections, mice were left in their home cages for two hrs, had core body temperature recorded, and were then euthanized. The core body temperature was measured rectally by a thermometer (model DM 852; ELLAB Instruments; Copenhagen, Denmark) via a lubricated thermistor probe (model PRA-22002-A, 2.2 mm diameter; ELLAB Instruments). Mice were held at the base of the tail and measured until a stable temperature measurement was obtained.
# By contrast, compound A had no effect on hypothermia in either wild-type or knock-out mice.
# [4] = system: photothrombotic focal ischemia in C57BL/6J mice; experiment: Photothrombotic model, behavioural assessment (grid-walking and cylinder tasks); assay type: in vivo; conditions: for cylinder task, improvement vs saline / grid-walking task, reduction of asymmetry: 7 days after ischemia
# Protocol: All procedures were performed in accordance with the guidelines on the care and use of laboratory animals set out by the University of Otago, Animal Research Committee and the Guide for Care and Use of Laboratory Animals (NIH Publication No. 85-23, 1996). All in vivo studies were approved by the University of Otago Animal Ethics Committee and are reported according to the ARRIVE (Animal Research: Reporting In Vivo Experiments) guidelines. The photochemical cortical lesion model resembles situations of acute brain injury related clinically to stroke and traumatic brain injury (TBI). Focal ischemia was induced by photothrombosis in male C57BL/6J mice (8-10 weeks) weighing ˜23-30 g as previously described (Clarkson et al., 2010). Under anesthesia with isoflurane (2% to 2.5% in O2) mice were placed in a stereotactic apparatus, the skull exposed through a midline incision, cleared of connective tissue and dried. A cold light source (KL1500 LCD, Zeiss, Auckland, New Zealand) attached to a 40× objective providing a 2-mm diameter illumination was positioned 1.5 mm lateral from bregma. Then, 0.2 ml of Rose Bengal (Sigma-Aldrich, Auckland, New Zealand; 10 mg/ml in normal saline) was administered i.p. After 5 min, the brain was illuminated through the exposed intact skull for 15 min, while keeping body temperature at 37.0±0.3° C. degrees using a heating pad (Harvard apparatus, Holliston, MA, USA). The skin was glued and animals left in a cage placed on a heating pad during the wake-up phase. Mice were housed under a 12-hr light/dark cycle with ad libitum access to food and water. Further, the mice were monitored and weighed on a daily basis.
# For in vivo studies, all compounds were dissolved in a mixture of sterile saline and H2O to obtain isotonicity (0.9%) and administered as 10 mg/ml and 10 μl of solution per gram mouse body weight. The injection of compound (i.p.) was performed 30 min, 3, 6 or 12 hrs after induction of the photothrombotic stroke. The vehicle groups received a corresponding volume of saline (0.9%) at the same time points (30 min, 3, 6 or 12 hrs).
# Forelimb motor performance was determined using the cylinder and grid-walking tasks as previously described (Clarkson et al., 2010). All animals were tested both in a pre- and post-testing session, 1 week before and 3 days or 7 days after the ischemic insult, respectively. Observers who scored the behaviour were blinded to the treatment groups.
# [5] = 175 mg/kg 30 min after ischemia
# [6] = 175 mg/kg 30 min after ischemia, day 3
smiles,measurement,setting,value
"O=C(O)C1=CC(O)CC1 (stereo not drawn) [Compound A, 3-hydroxycyclopent-1-enecarboxylic acid]",MCP-1 plasma levels,[1],tendency towards a decrease
same,IL-1a plasma levels,[1]; vs saline,did not significantly affect
same,IL-6 plasma levels,[1]; vs saline,significantly lowered
same,MMP9 mRNA levels,"[2]; 17.5 mg/kg, vs saline",significantly lower
same,CD14 mRNA levels,[2]; [5],markedly lowered
same,MMP9 mRNA levels,[2]; [5],markedly lowered
same,GFAP mRNA levels,"[2]; peri-infarct tissue, vs saline",not different
same,effect on body temperature (hypothermia),[3],no effect
same,"cylinder task, reduction of asymmetry","[4]; 17.5 mg/kg 30 min after ischemia, day 3",40%
same,"grid-walking task, reduction vs saline","[4]; 17.5 mg/kg 30 min after ischemia, day 3, non-significant",10%
same,"cylinder task, reduction of asymmetry",[4]; [6],42%
same,"grid-walking task, improvement vs saline",[4]; [6],26%
same,"cylinder task, improvement vs saline",[4]; 175 mg/kg 3 hr after ischemia,16%
same,"grid-walking task, reduction of asymmetry",[4]; 175 mg/kg 3 hr after ischemia,31%
same,"cylinder task, improvement vs saline",[4]; 175 mg/kg 6 hr after ischemia,20%
same,"grid-walking task, reduction of asymmetry",[4]; 175 mg/kg 6 hr after ischemia,22%
same,"cylinder task, improvement vs saline",[4]; 175 mg/kg 12 hr after ischemia,non-significant
same,"grid-walking task, reduction of asymmetry",[4]; 175 mg/kg 12 hr after ischemia,21%
